Test results as given in patent publication US8212016B2, “NPC1L1 orthologues” (Schering Corporation, priority 2006, dated 2012).
Like-named read-outs stand apart in the source and are kept apart here. Values belong to the compound of their own block, whether it stands above or below them.

Tests used:
monkey NPC1L1 [1] = molecular target: T1, monkey NPC1L1 (Macaca mulatta, UniProt A0MJA5); assay: Radioligand binding of [3H]-glucuronidated ezetimibe (compound 4) to cell membranes; design: species or system rhesus monkey
Method: (§1) Cell Culture and Membrane Preparation. […] Cells were maintained in DMEM supplemented with 10% FBS, 100 U/ml pen/strep, and 500 μg/ml geneticin at 37° C., 5% CO2. All cell culture reagents were obtained from Invitrogen Life Technologies, (Carlsbad, Calif.). Cell membranes were prepared by lysing cells in 5 mM HEPES with protease inhibitors (Complete™ Protease Inhibitor Cocktail Tablets; Roche Diagnostics Corp., Indianapolis Ind.) for 15 min at 4° C. A membrane pellet was obtained by centrifuging the cell lysates at 12,000×g for 25 min. […] Radioligand. […] Natl. Acad. Sci. […] Reactions were performed in binding buffer (5 mM HEPES, 5.5 mM glucose, 117 mM NaCl and 5.4 mM KCl, pH 7.4). Cell membranes (50 μg in 20 μl) were added to each well. […] Binding reactions were incubated for 2 hours at 37° C. Samples were transferred to Unifilter-96 GF/C plates (Perkin Elmer, Wellesley Mass.) and filtered using a Brandel harvester (Gaithersburg Md.). […] Liquid scintillant (50 μl; Microscint-20, Perkin Elmer, Wellesley Mass.) was added and the bound radioactivity was measured using a microplate scintillation counter.

human NPC1L1 [2] = molecular target: T2, human NPC1L1 (Homo sapiens, UniProt Q9UHC9, T1073A); assay: as above
T2 construct: expressed in transfected cells
T2 sequence (Q9UHC9 22-1332 isoform Q9UHC9-2 T1046A): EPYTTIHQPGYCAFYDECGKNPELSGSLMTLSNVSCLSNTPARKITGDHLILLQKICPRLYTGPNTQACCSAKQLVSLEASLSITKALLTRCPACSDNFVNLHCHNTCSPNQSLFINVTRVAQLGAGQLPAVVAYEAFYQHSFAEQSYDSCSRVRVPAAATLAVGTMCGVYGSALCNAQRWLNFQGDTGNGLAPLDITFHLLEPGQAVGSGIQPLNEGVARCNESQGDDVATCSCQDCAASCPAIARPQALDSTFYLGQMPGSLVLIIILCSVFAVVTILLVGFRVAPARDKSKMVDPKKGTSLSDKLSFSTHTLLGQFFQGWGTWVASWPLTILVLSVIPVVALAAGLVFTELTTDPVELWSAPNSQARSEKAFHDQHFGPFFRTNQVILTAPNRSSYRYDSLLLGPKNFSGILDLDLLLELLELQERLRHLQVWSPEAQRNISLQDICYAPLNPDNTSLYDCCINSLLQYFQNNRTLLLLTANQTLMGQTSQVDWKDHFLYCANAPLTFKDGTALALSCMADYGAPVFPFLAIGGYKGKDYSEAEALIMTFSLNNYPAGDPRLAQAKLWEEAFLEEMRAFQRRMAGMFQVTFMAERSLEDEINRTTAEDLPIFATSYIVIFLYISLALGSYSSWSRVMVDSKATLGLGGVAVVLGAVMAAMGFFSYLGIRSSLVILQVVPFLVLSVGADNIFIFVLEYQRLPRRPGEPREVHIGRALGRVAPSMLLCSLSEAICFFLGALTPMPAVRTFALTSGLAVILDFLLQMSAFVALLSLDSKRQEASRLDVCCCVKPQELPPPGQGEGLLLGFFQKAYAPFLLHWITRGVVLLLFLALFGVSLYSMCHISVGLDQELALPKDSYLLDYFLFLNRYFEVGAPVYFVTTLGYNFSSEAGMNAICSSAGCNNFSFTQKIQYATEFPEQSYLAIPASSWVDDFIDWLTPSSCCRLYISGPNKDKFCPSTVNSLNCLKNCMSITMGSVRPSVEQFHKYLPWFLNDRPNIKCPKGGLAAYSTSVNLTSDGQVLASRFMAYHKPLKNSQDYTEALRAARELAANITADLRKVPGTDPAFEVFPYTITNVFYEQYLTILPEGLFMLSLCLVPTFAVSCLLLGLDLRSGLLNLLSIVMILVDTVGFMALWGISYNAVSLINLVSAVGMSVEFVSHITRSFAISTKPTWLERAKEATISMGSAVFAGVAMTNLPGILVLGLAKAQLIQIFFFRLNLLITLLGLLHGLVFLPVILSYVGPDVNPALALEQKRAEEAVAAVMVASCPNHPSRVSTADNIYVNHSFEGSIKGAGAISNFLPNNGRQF
Method: as §1

mouse NPC1L1 = molecular target: T3, mouse NPC1L1 (Mus musculus, UniProt Q6T3U4, N476K); assay: Fluorescence NPC1L1 binding assay, HEK-293 cells, fluorescent compound 2 as ligand; conditions: for Kd: saturation binding, mouse NPC1L1; for Ki / Ki Mouse NPC1L1: Table 3, Mouse; for Ki: read-out: Ki Mouse NPC1L1
T3 construct: expressed in transfected cells
Method: (§2) Cell Culture and Membrane Preparation. Each plasmid pCR3.1 harboring NPC1L1 was prepared using standard molecular biology protocols. Stable cell lines expressing human, rhesus monkey, mouse, rat, hamster, canine or rabbit NPC1L1 were generated using Lipofectamine 2000 transfection reagent in HEK-293 cells according to the manufacturer's protocol. Cells were maintained in DMEM supplemented with 10% FBS, 100 U/ml pen/strep, and 500 μg/ml geneticin at 37° C., 5% CO2. All cell culture reagents were obtained from Invitrogen Life Technologies, (Carlsbad, Calif.). Cell membranes were prepared by lysing cells in 5 mM HEPES with protease inhibitors (Complete™ Protease Inhibitor Cocktail Tablets; Roche Diagnostics Corp., Indianapolis Ind.) for 15 min at 4° C. A membrane pellet was obtained by centrifuging the cell lysates at 12,000×g for 25 min. The membranes were resuspended in 5 mM HEPES with protease inhibitors and triturated with a 21G needle.
(§3) Fluorescence. Cells were plated into 384-well black/clear plates (BD Biosciences, Bedford Mass.) for binding experiments the following day. The media was aspirated. […] Media (20 μl) containing the indicated concentration of compound was then added to the wells. […] The binding reaction was allowed to proceed for 4 hours at 37° C. Subsequently the media was aspirated and the cells washed once with PBS.
In an effort to show binding to mouse NPC1L1, several related ezetimibe analogs were examined as possible alternatives to fluorescently-labeled (BODIPY) ezetimibe glucuronide (compound 1) in the binding assay. Compound 2, which is a fluorescently labeled synthetic precursor for fluorescently-labeled (BODIPY) ezetimibe glucuronide (compound 1; Burnett et al., Bioorganic and Medicinal Chemistry Letters 12:315-318 (2002)), was identified as a viable option for detection of mouse NPC1L1 binding. Compound 2 contains a methyl ester substitution for the carboxylic acid on the glucuronide portion of the molecule (compound structures shown in FIG. 4A).

human NPC1L1 [3] = molecular target: T2, human NPC1L1; assay: Fluorescence NPC1L1 binding assay, HEK-293 cells, BODIPY-labeled compound 1; conditions: for Ki / Ki Human NPC1L1: Table 3, Human; for Ki: read-out: Ki Human NPC1L1
Method: as §2, §3

rabbit NPC1L1 = rabbit NPC1L1 (Oryctolagus cuniculus, UniProt A0MJA7); assay: as above; conditions: for Ki / Ki Rabbit NPC1L1: Table 3, Rabbit; for Ki: read-out: Ki Rabbit NPC1L1
Method: as §2, §3

hamster NPC1L1 = hamster NPC1L1 (Mesocricetus auratus, UniProt A0MJA8); assay: as above; conditions: for Ki / Ki Hamster NPC1L1: Table 3, Hamster; for Ki: read-out: Ki Hamster NPC1L1
Method: as §2, §3

rat NPC1L1 = molecular target: T4, rat NPC1L1 (Rattus norvegicus, UniProt Q6T3U3, A349V/E317P/G318E/K324N/L297S); assay: as above; conditions: for Ki / Ki Rat NPC1L1: Table 3, Rat; for Ki: read-out: Ki Rat NPC1L1
T4 construct: expressed in transfected cells
Method: as §2, §3

canine NPC1L1 = canine NPC1L1 (Canis lupus familiaris, UniProt A0MJA4); assay: as above; conditions: for Ki / Ki Dog NPC1L1: Table 3, Dog; for Ki: read-out: Ki Dog NPC1L1
Method: as §2, §3

monkey NPC1L1 [4] = molecular target: T1, monkey NPC1L1; assay: as above; design: species or system rhesus monkey; conditions: for Ki / Ki Monkey NPC1L1: Table 3, Monkey; for Ki: read-out: Ki Monkey NPC1L1
Method: as §2, §3

[5] = test system: plasma and liver cholesterol; assay: Percent cholesterol lowering in plasma and liver; assay type: in vivo; conditions: hamster
cholesterol = assay: In vivo cholesterol lowering activity
[6] = test system: NPC1L1 orthologs of multiple species; assay: Binding to NPC1L1 orthologs of multiple species; conditions: NPC1L1 orthologs of the species tested
Method: as §2, §3

[7] = test system: ^14C-cholesterol absorption; assay: Acute cholesterol absorption assay; assay type: in vivo; conditions: intraduodenal
Method: Acute cholesterol absorption assay. ^14C-cholesterol absorption was determined acutely in rats using conditions previously described (Van Heek et al., J. Pharmacol. Exp. Ther. 283: 157-163 (1997)). Compounds were dissolved in rat bile and delivered (1.0 ml) intraduodenally by bolus injection via an intestinal catheter, followed by 1.0 ml saline rinse (0.9%). Following a 30 min incubation, a cholesterol emulsion containing 3 mg cholesterol and 2 μCi ^14C-cholesterol (3 ml) was delivered to each rat as a bolus via intestinal catheter, followed by 1 ml saline rinse. Animals were sacrificed 90 min later and ^14C-cholesterol levels in plasma, liver, intestinal contents, and intestinal wall were determined.

SMILES: COC(=O)[C@H]1O[C@@H](Oc2ccc([C@@H]3[C@@H](CC[C@H](O)c4ccc(F)cc4)C(=O)N3c3ccc(C#CCNC(=O)CCC4=[N+]5C(=Cc6c(C)cc(C)n6[B-]5(F)F)C=C4)cc3)cc2)[C@H](O)[C@@H](O)[C@@H]1O [compound 2]
Ki (monkey NPC1L1 [1]): 70 nM
increase in affinity versus compound 1 (monkey NPC1L1 [1]; monkey NPC1L1, methyl ester for carboxylic acid): 3 fold
Ki (human NPC1L1 [2]): 120 nM
Kd (mouse NPC1L1; read-out: Kd): 118 nM

SMILES: O=C1[C@H](CC[C@H](O)c2ccc(F)cc2)[C@@H](c2ccc(O)cc2)N1c1ccc(I)cc1 [compound 6]
cholesterol lowering Liver [5]: 63%
cholesterol lowering Plasma [5]: 22%
in vivo cholesterol lowering activity (cholesterol): exhibiting in vivo cholesterol lowering activity
Ki (mouse NPC1L1): 16400 nM
Ki (human NPC1L1 [3]): 4590 nM
Ki (rabbit NPC1L1): 5000 nM
Ki (hamster NPC1L1): 2340 nM
Ki (rat NPC1L1): 1460 nM
Ki (canine NPC1L1): 1430 nM
Ki (monkey NPC1L1 [4]): 1600 nM

SMILES: COc1ccc(N2C(=O)[C@H](CCCc3ccccc3)[C@H]2c2ccc(O[C@@H]3O[C@H](COCc4ccccc4)[C@@H](OCc4ccccc4)[C@H](OCc4ccccc4)[C@H]3OCc3ccccc3)cc2)cc1 [compound 8]
NPC1L1 binding activity [6]: total loss
in vivo cholesterol lowering activity (cholesterol): no in vivo cholesterol lowering activity
Ki Mouse NPC1L1 (mouse NPC1L1): In- active
Ki Human NPC1L1 (human NPC1L1 [3]): In- active
Ki Rabbit NPC1L1 (rabbit NPC1L1): In- active
Ki Hamster NPC1L1 (hamster NPC1L1): In- active
Ki Rat NPC1L1 (rat NPC1L1): In- active
Ki Dog NPC1L1 (canine NPC1L1): In- active
Ki Monkey NPC1L1 (monkey NPC1L1 [4]): In- active
rat ED50, inhibition of cholesterol absorption [7]: In- active

SMILES: COc1ccc(N2C(=O)[C@H](CCCc3ccccc3)[C@H]2c2ccc(F)cc2)cc1 [compound 9]
NPC1L1 binding activity [6]: total loss
cholesterol lowering Liver [5]: In- active
cholesterol lowering Plasma [5]: In- active
in vivo cholesterol lowering activity (cholesterol): no in vivo cholesterol lowering activity
Ki Mouse NPC1L1 (mouse NPC1L1): In- active
Ki Human NPC1L1 (human NPC1L1 [3]): In- active
Ki Rabbit NPC1L1 (rabbit NPC1L1): In- active
Ki Hamster NPC1L1 (hamster NPC1L1): In- active
Ki Rat NPC1L1 (rat NPC1L1): In- active
Ki Dog NPC1L1 (canine NPC1L1): In- active
Ki Monkey NPC1L1 (monkey NPC1L1 [4]): In- active
rat ED50, inhibition of cholesterol absorption [7]: In- active

The next lines start with results.

Ki (monkey NPC1L1 [1]): 210 nM
Ki (human NPC1L1 [2]): 2500 nM
Kd (mouse NPC1L1): could not be detected
Kd (human NPC1L1 [3]; saturation binding, human NPC1L1, 4 h): 61 nM
Kd (rabbit NPC1L1; saturation binding, rabbit NPC1L1, 4 h): 151 nM
Kd (hamster NPC1L1; saturation binding, hamster NPC1L1, 4 h): 49 nM
Kd (rat NPC1L1; saturation binding, rat NPC1L1, 4 h): 58 nM
Kd (canine NPC1L1; saturation binding, canine NPC1L1, 4 h): 52 nM
Kd (monkey NPC1L1 [4]; saturation binding, monkey NPC1L1, 4 h): 46 nM
SMILES: Cc1cc(C)n2c1C=C1C=CC(CCC(=O)NCC#Cc3ccc(N4C(=O)[C@H](CC[C@H](O)c5ccc(F)cc5)[C@H]4c4ccc(O[C@@H]5O[C@H](C(=O)O)[C@@H](O)[C@H](O)[C@H]5O)cc4)cc3)=[N+]1[B-]2(F)F [compound 1, BODIPY-labeled glucuronidated ezetimibe]

Ki (mouse NPC1L1): 7700 nM
Ki (human NPC1L1 [3]): 2150 nM
Ki (rabbit NPC1L1): 1900 nM
Ki (hamster NPC1L1): 1200 nM
Ki (rat NPC1L1): 542 nM
Ki (canine NPC1L1): 1280 nM
Ki (monkey NPC1L1 [4]): 370 nM
SMILES: O=C1[C@H](CC[C@H](O)c2ccc(F)cc2)[C@@H](c2ccc(O[C@@H]3O[C@H](CO)[C@@H](O[C@@H]4O[C@H](CO)[C@@H](O)[C@H](O)[C@H]4O)[C@H](O)[C@H]3O)cc2)N1c1ccc(F)cc1 [compound 5]
cholesterol lowering Liver [5]: 86%
cholesterol lowering Plasma [5]: 36%
in vivo cholesterol lowering activity (cholesterol): exhibiting in vivo cholesterol lowering activity

NPC1L1 binding activity [6]: decreased
Ki (mouse NPC1L1): 21600 nM
Ki (rabbit NPC1L1): 5600 nM
Ki (hamster NPC1L1): 4280 nM
Ki (rat NPC1L1): 2100 nM
Ki (canine NPC1L1): 2300 nM
SMILES: O=C(CS[C@H]1C(=O)N(c2ccc(F)cc2)[C@@H]1c1ccc(O)cc1)c1ccc(F)cc1 [compound 7]
cholesterol lowering Liver [5]: 96%
cholesterol lowering Plasma [5]: 47%
in vivo cholesterol lowering activity (cholesterol): exhibiting in vivo cholesterol lowering activity
ED50 ([7]; rat, read-out: rat ED50, inhibition of cholesterol absorption): 0.036 mg/kg
